PMC8642284 (Structure (London, England : 1993), 2021)

T1: ACAT2 (Homo sapiens, UniProt O75908)
T1 sequence (O75908 1-522): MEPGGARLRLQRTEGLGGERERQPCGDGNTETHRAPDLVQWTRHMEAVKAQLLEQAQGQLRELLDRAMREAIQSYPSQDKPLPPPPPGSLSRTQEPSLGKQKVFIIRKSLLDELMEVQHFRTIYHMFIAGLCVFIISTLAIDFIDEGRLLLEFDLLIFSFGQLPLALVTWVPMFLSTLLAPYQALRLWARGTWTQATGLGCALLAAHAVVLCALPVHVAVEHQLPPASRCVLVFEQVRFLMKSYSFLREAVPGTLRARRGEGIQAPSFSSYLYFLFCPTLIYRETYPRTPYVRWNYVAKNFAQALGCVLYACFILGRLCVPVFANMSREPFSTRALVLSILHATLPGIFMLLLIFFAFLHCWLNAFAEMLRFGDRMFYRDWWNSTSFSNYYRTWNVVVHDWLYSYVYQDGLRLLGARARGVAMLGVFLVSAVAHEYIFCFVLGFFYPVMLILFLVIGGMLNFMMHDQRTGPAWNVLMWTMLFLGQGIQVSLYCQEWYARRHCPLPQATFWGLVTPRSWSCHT


Experiments:
[1] = target: T1, ACAT2; assay: cryo-EM structure; assay type: biochemical
[2] = target: the molecule itself; assay: cryo-EM structure

| Molecule | IC50 [1] [nM] | stoichiometry N [2] |
| --- | --- | --- |
| CC(C)c1cccc(C(C)C)c1NC(=O)NCC1(c2ccc(N(C)C)cc2)CCCC1 [nevanimibe] | 710 |  |
| human ACAT2 (acyl-CoA:cholesterol acyltransferase 2) (enzyme) EPGGARLRLQRTEGLGGERERQPCGDGNTETHRAPDLVQWTRHMEAVKAQLLEQAQGQLRELLDRAMREAIQSYPSQDKPLPPPPPGSLSRTQEPSLGKQKVFIIRKSLLDELMEVQHFRTIYHMFIAGLCVFIISTLAIDFIDEGRLLLEFDLLIFSFGQLPLALVTWVPMFLSTLLAPYQALRLWARGTWTQATGLGCALLAAHAVVLCALPVHVAVEHQLPPASRCVLVFEQVRFLMKSYSFLREAVPGTLRARRGEGIQAPSFSSYLYFLFCPTLIYRETYPRTPYVRWNYVAKNFAQALGCVLYACFILGRLCVPVFANMSREPFSTRALVLSILHATLPGIFMLLLIFFAFLHCWLNAFAEMLRFGDRMFYRDWWNSTSFSNYYRTWNVVVHDWLYSYVYQDGLRLLGARARGVAMLGVFLVSAVAHEYIFCFVLGFFYPVMLILFLVIGGMLNFMMHDQRTGPAWNVLMWTMLFLGQGIQVSLYCQEWYARRHCPLPQATFWGLVTPRSWSCHT |  | 4 |
